Assay results: article PMC11945486, “TAS1R2/TAS1R3 Single-Nucleotide Polymorphisms Affect Sweet Taste Receptor Activation by Sweeteners: The SWEET Project” (Nutrients, 2025)
Where two headings read alike, the source gives them in different places. No end group written: not given here.

B1: thaumatin (protein)
chain: ATFEIVNRCSYTVWAAASKGDAALDAGGRQLNSGESWTINVEPGTKGGKIWARTDCYFDDSGSGICKTGDCGGLLRCKRFGRPPTTLAEFSLNQYGKDYIDISNIKGFNVPMDFSPTTRGCRGVRCAADIVGQCPAKLKAPGGGCNDACTVFQTSEYCCTTGKCGPTEYSRFFKRLCPDAFSYVLDKPTTVTCPGSSNYRVTFCPTA
modifications: Eight disulfides
notes: sweet-tasting plant protein, E957

Target: T1, human TAS1R2-WT/TAS1R3-F749S (Homo sapiens, UniProt Q7RTX0+Q8TE23, F749S)
T1 construct: expressed in transfected cells; host or cells: HEK293T stably expressing Gα16gust44
T1 sequence (Q8TE23 20-839): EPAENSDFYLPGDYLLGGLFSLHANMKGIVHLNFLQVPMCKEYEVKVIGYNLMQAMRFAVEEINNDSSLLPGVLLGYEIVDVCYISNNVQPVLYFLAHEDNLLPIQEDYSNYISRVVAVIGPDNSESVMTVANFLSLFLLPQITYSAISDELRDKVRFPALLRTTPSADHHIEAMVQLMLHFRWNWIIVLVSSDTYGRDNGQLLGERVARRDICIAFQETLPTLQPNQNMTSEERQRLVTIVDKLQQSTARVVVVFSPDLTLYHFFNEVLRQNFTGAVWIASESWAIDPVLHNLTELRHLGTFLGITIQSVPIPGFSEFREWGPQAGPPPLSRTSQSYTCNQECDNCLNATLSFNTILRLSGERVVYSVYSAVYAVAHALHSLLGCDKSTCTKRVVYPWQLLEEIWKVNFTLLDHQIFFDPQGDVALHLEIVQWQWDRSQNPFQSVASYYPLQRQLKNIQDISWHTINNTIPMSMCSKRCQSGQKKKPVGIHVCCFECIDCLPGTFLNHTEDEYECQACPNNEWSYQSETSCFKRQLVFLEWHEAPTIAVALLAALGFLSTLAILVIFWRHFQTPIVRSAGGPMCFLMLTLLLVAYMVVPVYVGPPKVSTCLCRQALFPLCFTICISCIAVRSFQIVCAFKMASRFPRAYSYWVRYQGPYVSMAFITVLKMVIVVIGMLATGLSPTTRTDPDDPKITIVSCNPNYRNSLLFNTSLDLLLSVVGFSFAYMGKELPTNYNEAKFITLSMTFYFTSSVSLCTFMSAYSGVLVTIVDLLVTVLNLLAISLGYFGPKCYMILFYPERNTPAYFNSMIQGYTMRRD
T1 sequence (Q7RTX0 21-852 F749S): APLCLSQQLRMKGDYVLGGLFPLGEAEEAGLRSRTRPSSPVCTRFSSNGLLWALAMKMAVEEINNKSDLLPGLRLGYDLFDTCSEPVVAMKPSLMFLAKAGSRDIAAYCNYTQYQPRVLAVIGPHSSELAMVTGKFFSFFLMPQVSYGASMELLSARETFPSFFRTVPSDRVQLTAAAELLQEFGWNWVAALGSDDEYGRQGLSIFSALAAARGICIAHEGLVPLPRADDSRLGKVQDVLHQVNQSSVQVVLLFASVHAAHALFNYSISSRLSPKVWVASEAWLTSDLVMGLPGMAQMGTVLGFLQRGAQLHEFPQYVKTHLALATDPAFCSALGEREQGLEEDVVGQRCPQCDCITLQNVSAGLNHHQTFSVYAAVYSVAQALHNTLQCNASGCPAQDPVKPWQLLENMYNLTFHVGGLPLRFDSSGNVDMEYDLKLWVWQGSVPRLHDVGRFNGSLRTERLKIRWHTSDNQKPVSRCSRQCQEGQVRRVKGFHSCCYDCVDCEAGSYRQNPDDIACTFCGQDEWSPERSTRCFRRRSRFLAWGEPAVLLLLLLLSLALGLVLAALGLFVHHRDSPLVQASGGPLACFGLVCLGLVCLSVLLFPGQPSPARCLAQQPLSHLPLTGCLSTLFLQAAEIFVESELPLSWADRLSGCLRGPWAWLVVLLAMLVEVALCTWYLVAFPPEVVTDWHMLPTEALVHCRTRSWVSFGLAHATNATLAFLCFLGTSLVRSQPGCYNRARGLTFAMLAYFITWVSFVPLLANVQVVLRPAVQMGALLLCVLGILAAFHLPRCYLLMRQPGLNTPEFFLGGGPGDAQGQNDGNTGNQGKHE
Experiment: Calcium mobilisation assay, TAS1R2-WT with TAS1R3 variant F749S
Format: cell-based
Settings: for Max ΔF/F0: maximal signal amplitude
Description: The coding sequences for TAS1R2 and TAS1R3 were commercially synthesised, and the human codon was optimised for expression in human cells. The coding sequences of human TAS1R2 and TAS1R3 were subcloned and inserted into the mammalian expression vectors pcDNA6/myc-HisA and pcDNA4/myc-HisA (Invitrogen; Thermo Fisher Scientific; Illkirch, France) between the EcoRI and NotI restriction sites, generating the plasmids pcDNA6-TAS1R2 and pcDNA4-TAS1R3, respectively. To increase protein expression in mammalian cells, an upstream start codon was used, which was a sequence called MAX, corresponding to the QBI SP163 element also described in pcDNA4-HisMax (Invitrogen; Thermo Fisher Scientific; Illkirch, France). To measure the expression level of the receptor by immunohistochemistry, we used the FLAG sequence ([…]) in the C-terminal position, which encodes the FLAG tag epitope. SNP variants of TAS1R2 and TAS1R3 were constructed based on […], respectively, using site-directed mutagenesis (Genewiz; Leipzig, Germany).
The HEK293T cells were kindly provided by Jay P. Slack (Givaudan Flavors Corporation; Cincinnati, OH, USA). HEK293T cells stably transfected with Gα16gust44 [43, 67] were seeded in poly-D-lysine-coated clear-bottom black 96-well plates (0.35 × 10^5 cells/well) in high-glucose DMEM supplemented with 2 mM GlutaMAX, 10% dialysed foetal bovine serum with penicillin/streptomycin and G418 (400 μg/mL) at 37 °C and 6.3% CO2 in a humidified atmosphere as previously reported. […] As a negative control, HEK293T cells were mock-transfected with the empty expression vector. After a further 24 h of incubation, the HEK293T cells were washed with C1 buffer (130 mM NaCl, 5 mM KCl, 10 mM HEPES pH 7.4 and 2 mM CaCl2). The 96-well plates containing the cells were then stimulated with sweet-tasting compounds. […] Different concentration ranges were tested depending on the sweet compound injected. The Ca^2+ changes were expressed as fractional changes in fluorescent light intensity: ΔF/F = (F − F0)/F0, where F was the fluorescent light intensity at each point, and F0 was the value of emitted fluorescent light prior to stimulus application. To calculate dose–response relationships, the changes in fluorescence upon stimulus application were averaged, mock-subtracted and baseline-corrected. The dose–response data obtained were adjusted using a 4-parameter logistic equation. The half-maximal effective concentrations (EC50 values) and maximal signal amplitudes were calculated using SigmaPlot software (version 15.0) (Systat Software; San Jose, CA, USA).
For in vitro calcium mobilisation assay performed on hTAS1R2-SNPs, hTAS1R3-SNPs and mTAS1R3-I60T, 6 to 7 concentrations were tested for each sweet compound, plus buffer alone. All concentration–receptor combinations were measured in duplicate, and each experiment was repeated at least 4 times (8 wells/concentration). Results were expressed for each concentration as ΔF/F mean ± SEM and represented as dose–response curves.

| Molecule | R1 = Variant EC50/WT EC50 | Max ΔF/F0 | EC50 (read-out: EC50) [µM] | EC50 (brazzein) [µg/mL] |
| --- | --- | --- | --- | --- |
| OC[C@H]1O[C@H](O[C@]2(CCl)O[C@H](CCl)[C@@H](O)[C@@H]2O)[C@H](O)[C@@H](O)[C@H]1Cl [Sucralose] | 2.3 | 0.18 ± 0.01 | 252 ± 36 |  |
| O=S(=O)(O)NC1CCCCC1 [Cyclamate, cyclamate] |  |  | 3430 ± 1990 |  |
| C=C(C)[C@@H]1CC=C(/C=N/O)CC1 [Perillartine, perillartine] | 0.9 | 1.90 ± 0.30 | 12.1 ± 6.1 |  |
| C=C1C[C@@]23CC[C@H]4[C@@](C)(CCC[C@@]4(C)C(=O)O[C@@H]4O[C@H](CO)[C@@H](O)[C@H](O[C@@H]5O[C@H](CO)[C@@H](O)[C@H](O)[C@H]5O)[C@H]4O[C@@H]4O[C@H](CO)[C@@H](O)[C@H](O)[C@H]4O)[C@@H]2CC[C@]1(O[C@@H]1O[C@H](CO)[C@@H](O)[C@H](O[C@@H]2O[C@H](CO)[C@@H](O)[C@H](O)[C@H]2O)[C@H]1O[C@@H]1O[C@H](CO)[C@@H](O)[C@H](O)[C@H]1O)C3 [Rebaudioside M, rebaudioside M] | 1.8 | 0.54 ± 0.03 | 71.8 ± 9.6 |  |
| COc1ccc(CCC(=O)c2c(O)cc(O[C@@H]3O[C@H](CO)[C@@H](O)[C@H](O)[C@H]3O[C@@H]3O[C@@H](C)[C@H](O)[C@@H](O)[C@H]3O)cc2O)cc1O [NHDC, neohesperidin dihydrochalcone] | 3.0 | 0.29 ± 0.01 | 150 ± 19.6 |  |
| thaumatin | 3.0 | 0.42 ± 0.03 |  |  |
| CC1=CC(=O)NS(=O)(=O)O1 [Acesulfame K, acesulfame K] | 0.7 | 0.04 ± 0.01 | 410 ± 242 |  |
| brazzein (QDKCKKVYENYPVSKCQLANQCNYDCKLDKHARSGECFYDEKRNLQCICDYCEY; ends and bridges not checked; cysteine pairing not given here; UniProt P56552 1-54, looked up) [sweet-tasting protein obtained by recombinant production using the yeast Pichia pastoris] | 1.9 | 0.65 ± 0.01 |  | 212.2 ± 8.6 |
| C[C@H](CC[C@@H](O[C@@H]1O[C@H](CO[C@@H]2O[C@H](CO)[C@@H](O)[C@H](O)[C@H]2O)[C@@H](O)[C@H](O)[C@H]1O[C@@H]1O[C@H](CO)[C@@H](O)[C@H](O)[C@H]1O)C(C)(C)O)[C@H]1CC[C@@]2(C)[C@@H]3CC=C4[C@@H](CC[C@H](O[C@@H]5O[C@H](CO[C@@H]6O[C@H](CO)[C@@H](O)[C@H](O)[C@H]6O)[C@@H](O)[C@H](O)[C@H]5O)C4(C)C)[C@]3(C)[C@H](O)C[C@]12C [Mogroside V, mogroside V] | 2.1 | 0.47 ± 0.02 | 65.5 ± 5.4 |  |
| COC(=O)[C@H](Cc1ccccc1)NC(=O)[C@H](CC(=O)O)NCCC(C)(C)C [Neotame] | 1.5 | 0.22 ± 0.01 | 1.82 ± 0.12 |  |
| B1 |  |  | 31.2 ± 3.5 |  |
